{"source": "paper PMC9102399", "about": "(Molecules, 2022)", "origin": "cited, not measured here", "key": {"[1]": {"conditions": "beagle dogs"}, "[2]": {"set-up": "method as in earlier work", "conditions": "SD rats"}, "[3]": {"conditions": "rats, oral; curcumin 500 mg/kg"}}, "data": [{"smiles": "COc1cc(C=CC(=O)CC(=O)C=Cc2ccc(O)c(OC)c2)ccc1O", "note": "[CUR, 1,7-bis [4-hydroxy-3-methoxy-phenyl]-hepta-1,6-diene-3,5-dione]", "values": [{"measurement": "oral t1/2 of CUR", "setting": "[1]", "result": "about 0.85 h"}]}, {"smiles": "COc1cc(C=CC(=O)CC(=O)C=Cc2ccc(O)cc2)ccc1O", "note": "[CUR II, 4-hydroxycinnamoyl-[4-hydroxy-3-methoxycinnamoyl] methane]", "values": [{"measurement": "t1/2 of oral CUR II", "setting": "[2]", "result": "about 5.5 h"}]}, {"smiles": "COc1cc(/C=C/C(=O)CC(=O)/C=C/c2ccc(O)c(OC)c2)ccc1O", "note": "[curcumin]", "values": [{"measurement": "time of maximal plasma concentration", "setting": "[3]", "result": 30, "unit": "min"}]}]}
